Measured values published in patent publication US20230339977A1, “SUBSTITUTED HETEROARYL COMPOUND, AND COMPOSITION AND APPLICATION THEREOF” (SUNSHINE LAKE PHARMA CO., LTD., priority 2020, published 2023).
Where two headings read alike, the source gives them in different places.

What was measured:
[1] = Pharmacokinetic evaluation in rats after intravenous injection and oral administration; format: in vivo; settings: rat, plasma; for AUC(0-t): read-out: PK AUClast; for Cmax: read-out: PK Cmax; for half-life: read-out: PK T½ (converted)
Method: The analytical LC/MS/MS system includes an Agilent 1200 series vacuum degasser, a binary syringe pump, an orifice plate autosampler, a column oven, and an Agilent G6430 triple quadrupole mass spectrometer with an electrospray ionization (ESI) source.
Agilent XDB-C18, 2.1 × 30 mm, 3.5 µM column was used to analysis, 5 µL sample was injected. Analytical conditions: Mobile phases were 0.1% formic acid in water (A) and 0.1% formic acid in methanol (B). The flow rate was 0.4 mL/min.
In addition, Agilent 6330 series LC/MS/MS spectrometer was used for analysis, equipped with G1312A binary syringe pump, G1367A automatic sampler and G1314C UV detector; LC/MS/MS spectrometer used ESI radiation source. Optimum analysis was achieved using standards with appropriate cation model processing and MRM conversion for each analyte. A Capcell MP-C18 column, 100 × 4.6 mm I.D., 5 µM (Phenomenex, Torrance, California, USA) was used during the analysis. Mobile phase was 5 mM ammonium acetate, 0.1% methanol in water (A): 5 mM ammonium acetate, 0.1% methanol in acetonitrile (B) (70/30, v/v); flow rate was 0.6 mL/min; column temperature was maintained at room temperature; 20 µL of sample was injected.
The present invention evaluates the pharmacokinetic studies of the compounds of the present invention in mice, rats, dogs or monkeys. The compounds of the present invention were administered in the form of aqueous solution or 2% HPMC + 1% Tween-80 aqueous solution, 5% DMSO + 5% saline solution, 4% MC or capsule. For intravenous administration, animals were dosed at about 0.5, 0.6, 1 or 2 mg/kg. The oral doses (p.o.) were 5 or 10 mg/kg for rats and mice, and 10 mg/kg for dogs and monkeys. Bloods (0.3 mL) were taken at time points 0.25, 0.5, 1.0, 2.0, 3.0, 4.0, 6.0, 8.0, 12 and 24 h and centrifuged at 3,000 or 4,000 rpm for 10 min. Plasma solutions were collected and stored at -20° C. or -70° C. until LC/MS/MS analysis as described above. […] Table 2 is the experimental results of the pharmacokinetic characteristics of the compounds provided in the examples of the present invention in rats.

JAK1/TYK2 = assay: Cell level activity test of JAK1/TYK2 (IFN-α induced STAT3 phosphorylation in PBMC); format: cell-based; settings: Homo sapiens; P-STAT3 by ELISA in PBMC, compound 1 h, IFN-α 5000 U/mL 15 min; read-out: IC50 nM (JAK 1 /TYK2)
Method: IFN-α can induce the phosphorylation of STAT3 downstream of JAK1/TYK2 in PBMC, and by measuring the level of STAT3 phosphorylation, the activity of the compound on JAK1/TYK2 at the cell level can be reflected.
Whole blood was collected from healthy subjects, anticoagulated with heparin sodium, and PBMC (human peripheral blood mononuclear cells) were extracted. PBMC were seeded in a 96-well culture plates at a density of 1*106/well. Positive wells and negative wells were added with the same volume of DMSO as the compound, and the final concentration of DMSO was 0.5%. The compounds were incubated with the cells at 37° C. for 1 h, and then stimulated by adding IFN-α at a final concentration of 5000 U/mL, an equal volume of medium was added to the negative wells, and incubated for 15 min. The cells were centrifuged to remove the supernatant, then lysed, and P-STAT3 was measured according to the instructions of the ELISA kit, the absorbance was read at 450 nm, and the IC50 value or inhibition rate was calculated.

JAK2/TYK2 = assay: Cell level activity test of JAK2/TYK2 (IL-12 mediated IFNγ expression in NK92 cells); format: cell-based; settings: IFNγ in supernatant by ELISA, NK92 cells with IL-12, 24 h
Text: TYK2 belongs to the JAK family, and can accept the ligand acting on the coupled receptor signal to regulate downstream signal activator of transcription (STAT) phosphorylation. Phosphorylation of STAT can regulate the expression of downstream related genes, leading to changes in physiological functions such as cell proliferation and differentiation. IL-12 mediates IFNγ expression in NK92 cells through JAK2/TYK2.
Therefore, by inhibiting TYK2 activity, inhibition of this cascade pathway leads to a decrease in IFNγ expression. However, IL-2 can induce NK92 proliferation and produce IFNγ through receptor-coupled […], so the influence of IL-2 needs to be ruled out. In this experiment, the activity of compounds on JAK2/TYK2 was evaluated by detecting the expression of IFNγ at various compound concentrations.
The test compound was dissolved in DMSO, prepared into a 20 mM stock solution, and stored at -20° C. for future use. The mother solution was diluted 10 times with DMSO to make a 2 mM solution, then diluted with medium to an initial concentration of […], and then diluted 3-fold with medium containing 5% DMSO to obtain a prepared concentration gradient of […], 33333.3 nM, 11111.1 nM, 3703.70 nM, 1234.57 nM, 411.523 nM, 137.174 nM, 45.7247 nM, 15.2416 nM; 10 ul of the above-mentioned concentration of drugs were added into a 96-well plate to obtain the final concentrations of […], 3333.3 nM, 1111.1 nM, 370.4 nM, 123.5 nM, 41.1 nM, 13.7 nM, 4.6 nM, 1.52 nM;
NK92 cells were resuscitated and cultured, 16 h before the experiment, the medium was replaced with interleukin-free medium. The mixture was centrifuged and IL-12 medium was added to resuspend the cells, seeded 95 ul in a 96-well plate at a density of 20,000 cells/well, 10 ul of the above gradual dilution was added and incubated for 24 h, centrifuged to take the supernatant, diluted 3-fold with pure water, and the IFNγ concentration of the supernatant was detected by ELISA, the IC50 value was calculated.

## CC(=O)Nc1cc2c(-c3cc(OCCC(C)(C)O)c4c(n3)C3(CCOC3)OCC4)cn(C)c2cn1 (stereo not shown) [Example 26, N-(3-(4′-(3-Hydroxy-3-Methylbutoxy)-4,5,5′,6′-Tetrahydro-2H-Spiro[Furan-3, 8′-Pyrano[3,4-b]Pyridin]-2′-yl)-1-Methyl-1H-Pyrrolo[2,3-c]Pyridin-5-yl)Acetamide]
[1]; IV 2 mg/kg
  AUC(0-t): 494 ng·h/mL
  Cmax: 289 ng/mL
  half-life: 1.65 h
[1]; PO 5 mg/kg
  AUC(0-t): 2290 ng·h/mL
  Cmax: 612 ng/mL
  half-life: 3.62 h
[1]; oral bioavailability, PO 5 mg/kg
  bioavailability: 98.5%
JAK1/TYK2
  IC50: 110 nM

## CC(=O)Nc1cc2c(-c3cc(OCC[C@@H](C)O)c4c(n3)C3(CCOC3)OCC4)cn(C)c2cn1 (stereo partly drawn) [Example 37, N-(3-(4′-((R)-3-Hydroxybutoxy)-4,5,5′,6′-Tetrahydro-2H-Spiro[Furan-3,8′-Pyrano[3,4-b]Pyridin]-2′-yl)-1-Methyl-1H-Pyrrolo[2,3-c]Pyridin-5-yl)Acetamide]
JAK2/TYK2; NK92, 24 h
  IC50: 20 nM

## CC(=O)Nc1cc2c(-c3cc(CC#N)c4c(n3)C3(CCOC3)OCC4)cn(C)c2cn1 (stereo not shown) [Example 42, N-(3-(4′-(Cyanomethyl)-4,5,5′,6′-Tetrahydro-2H-Spiro[Furan-3,8′-Pyrano[3,4-b]Pyridin]-2′-yl)-1-Methyl-1H-Pyrrolo[2,3-c]Pyridin-5-yl)Acetamide]
JAK2/TYK2; NK92, 24 h
  IC50: 9.6 nM

## COCCOCc1cc(-c2cn(C)c3cnc(NC(C)=O)cc23)nc2c1CCOC21CCOC1 (stereo not shown) [Example 36, N-(3-(4′-((2-Methoxyethoxy)Methyl)-4,5,5′,6′-Tetrahydro-2H-Spiro[Furan-3,8 ‘-Pyrano[3,4-b]Pyridin]-2′-yl)-1methyl-1H-Pyrrolo[2,3-c]Pyridin-5-yl)Acetamide]
JAK2/TYK2; NK92, 24 h
  IC50: 52.9 nM

## CC(=O)Nc1cc2c(-c3cc(OCC[C@H](C)O)c4c(n3)C3(CCOC3)OCC4)cn(C)c2cn1 (stereo partly drawn) [Example 39, N-(3-(4′-((S)-3-Hydroxybutoxy)-4,5,5′,6′-Tetrahydro-2H-Spiro[Furan-3,8′-Pyrano[3,4-b]Pyridin]-2′-yl)-1-Methyl-1H-Pyrrolo[2,3-c]Pyridin-5-yl)Acetamide]
JAK2/TYK2; NK92, 24 h
  IC50: 11 nM

## COC(C)CCOc1cc(-c2cn(C)c3cnc(NC(C)=O)cc23)nc2c1CCOC21CCOC1 (stereo in doubt) [Example 43, N-(3-(4′-((R)-3-Methoxybutoxy)-4,5,5′,6′-Tetrahydro-2H-Spiro[Furan-3,8′-Pyrano[3,4-b]Pyridin]-2′-yl)-1-Methyl-1H-Pyrrolo[2,3-c]Pyridin-5-yl)Acetamide]
JAK2/TYK2; NK92, 24 h
  IC50: 26.4 nM

## CC(=O)Nc1cc2c(-c3cc(OCCCO)c4c(n3)C3(CCOC3)OCC4)cn(C)c2cn1 (stereo not shown) [Example 34, N-(3-(4′-(3-Hydroxypropoxy)-4,5,5′,6′-Tetrahydro-2H-Spiro[Furan-3,8′-Pyrano[3,4-b]Pyridin]-2′-yl)-1-Methyl-1H-Pyrrolo[2,3-c]Pyridin-5-yl)Acetamide]
JAK2/TYK2; NK92, 24 h
  IC50: 34.3 nM

## CO[C@@H](C)CCOc1cc(-c2cn(C)c3cnc(NC(C)=O)cc23)nc2c1CCOC21CCOC1 (stereo partly drawn) [Example 38, N-(3-(4′-((S)-3-Methoxybutoxy)-4,5,5′,6′-Tetrahydro-2H-Spiro[Furan-3,8′-Pyrano[3,4-b]Pyridin]-2′-yl)-1-Methyl-1H-Pyrrolo[2,3-c]Pyridin-5-yl)Acetamide]
JAK2/TYK2
  IC50: 27.7 nM

## CC(=O)Nc1cc2c(-c3cc(COCC(C)(C)O)c4c(n3)C3(CCOC3)OCC4)cn(C)c2cn1 (stereo not shown) [Example 45, N-(3-(4′-((2-Hydroxy-2-Methylpropoxy)Methyl)-4,5,5′,6′-Tetrahydro-2H-Spiro[Furan-3,8′-Pyrano[3,4-b]Pyridin]-2′-yl)-1-Methyl-1H-Pyrrolo[2,3-c]Pyridin-5-yl)Acetamide]
JAK2/TYK2; NK92, 24 h
  IC50: 111 nM

## CC(=O)Nc1cc2c(-c3cc(OCCC(C)(C)O)c4c(n3)C3(CCOC3)OCC4)cn(C3COC3)c2cn1 (stereo not shown) [Example 49, N-(3-(4′-(3-Hydroxy-3-Methylbutoxy)-4,5,5′,6′-Tetrahydro-2H-Spiro[Furan-3, 8′-Pyrano[3,4-b]Pyridin]-2′-yl)-1-(Oxetan-3-yl)-1H-Pyrrolo[2,3-c]Pyridin-5-yl)Acetamide]
JAK2/TYK2; NK92, 24 h
  IC50: 68.1 nM

## CC(=O)Nc1cc2c(-c3cc(SCCC(C)(C)O)c4c(n3)C3(CCOC3)OCC4)cn(C)c2cn1 (stereo not shown) [Example 44, N-(3-(4′-((3-Hydroxy-3-Methylbutyl)Thio)-4,5,5′,6′-Tetrahydro-2H-Spiro[Furan-3,8′-Pyrano[3,4-b]Pyridin]-2′-yl)-1-Methyl-1H-Pyrrolo[2,3-c]Pyridin-5-yl)Acetamide]
JAK2/TYK2; NK92, 24 h
  IC50: 40.2 nM

## COCCOCCCOc1cc(-c2cn(C)c3cnc(NC(C)=O)cc23)nc2c1CCOC21CCOC1 (stereo not shown) [Example 32, N-(3-(4′-(3-(2-Methoxyethoxy)Propoxy)-4,5,5′,6′-Tetrahydro-2H-Spiro[Furan-3,8′-Pyrano[3,4-b]Pyridin]-2′-yl)-1-Methyl-1H-Pyrrolo[2,3-c]Pyridin-5-yl)Acetamide]
JAK2/TYK2; NK92, 24 h
  IC50: 30.6 nM

## CC(=O)Nc1cc2c(-c3cc(OCCC(C)(C)C#N)c4c(n3)C3(CCOC3)OCC4)cn(C)c2cn1 (stereo not shown) [Example 40, N-(3-(4′-(3-Cyano-3-Methylbutoxy)-4,5,5′,6′-Tetrahydro-2H-Spiro[Furan-3,8′-Pyrano[3,4-b]Pyridin]-2′-yl)-1-Methyl-1H-Pyrrolo[2,3-c]Pyridin-5-yl)Acetamide]
JAK2/TYK2; NK92, 24 h
  IC50: 152 nM

## CC(=O)Nc1cc2c(-c3cc(OCCCOC(F)F)c4c(n3)C3(CCOC3)OCC4)cn(C)c2cn1 (stereo not shown) [Example 33, N-(3-(4′-(3-(Difluoromethoxy)Propoxy)-4,5,5′,6′-Tetrahydro-2H-Spiro[Furan-3,8′-Pyrano[3,4-b]Pyridin]-2′-yl)-1-Methyl-1H-Pyrrolo[2,3-c]Pyridin-5-yl)Acetamide]
JAK2/TYK2; NK92, 24 h
  IC50: 38.6 nM

## CC(=O)Nc1cc2c(-c3cc(NCCC(C)(C)O)c4c(n3)C3(CCOC3)OCC4)cn(C)c2cn1 (stereo not shown) [Example 48, N-(3-(4′-((3-Hydroxy-3-Methylbutyl)Amino)-4,5,5′,6′-Tetrahydro-2H-Spiro[Furan-3,8′-Pyrano[3,4-b]Pyridin]-2′-yl)-1-Methyl-1H-Pyrrolo[2,3-c]Pyridin-5-yl)Acetamide]
JAK2/TYK2; NK92, 24 h
  IC50: 115 nM
